Data from ChEMBL document CHEMBL1201862, “PubChem BioAssay data set” (2004).
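Five concentrations, 48 hours, 96-well plates. Abbreviation: GI50, concentration required for 50% inhibition of growth.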 Calls of active or inactive are those of the source. No stated cut-off is given here; in the data, active = GI50 up to about 1.1 µM and inactive = higher.

Key:
Test in all cases: NCI tumour cell line growth inhibition, 48 h
[1] = test system: ACHN
[2] = test system: CAKI-1
[3] = test system: HCC 2998
[4] = test system: HOP-62
[5] = test system: HOP-92
[6] = test system: LOX IMVI
[7] = test system: MDA-MB-231
[8] = test system: Malme-3M
[9] = test system: PC-3
[10] = test system: SF-268
[11] = test system: SF-295
[12] = test system: SK-MEL-28
[13] = test system: SK-MEL-5
[14] = test system: SN12C
[15] = test system: SW-620
[16] = test system: U-251
[17] = test system: A498
[18] = test system: OVCAR-3
[19] = test system: RXF 393
[20] = test system: Hs-578T

Measured: GI50

Cn1c(=O)cc(N2CCCC2)[nH]c1=O
inactive: [1] > 100 µM | [2] > 100 µM | [3] > 100 µM | [4] > 100 µM | [5] > 100 µM | [6] > 100 µM | [7] > 100 µM | [8] > 100 µM | [9] > 100 µM | [10] 74.1 µM | [11] > 100 µM | [12] > 100 µM | [13] > 100 µM | [14] > 100 µM | [15] > 100 µM | [16] > 100 µM

O=C1C2C3SC(c4cc5ccccc5cc43)C2C(=O)N1c1ccccc1 (stereo not drawn)
inactive: [17] 41.8 µM | [1] 48.5 µM | [2] 45 µM | [3] > 100 µM | [5] 30.1 µM | [6] > 100 µM | [8] 70.3 µM | [18] > 100 µM | [19] 28.1 µM | [10] > 100 µM | [11] > 100 µM | [12] 88.5 µM | [13] > 100 µM | [14] > 100 µM | [15] > 100 µM | [16] 68.2 µM

c1ccc(-c2cc(-c3cccs3)c(-c3cccs3)s2)cc1
inactive: [17] 80.2 µM | [1] 70.5 µM | [2] 26.4 µM | [3] 25 µM | [4] > 100 µM | [5] > 100 µM | [20] 70 µM | [7] 29.9 µM | [18] 56.2 µM | [19] 16.6 µM | [10] > 100 µM | [11] 80 µM | [13] 33.7 µM | [14] 85.9 µM | [15] 33.7 µM | [16] 78.7 µM

O=C1CCCC2=C1CC1=C(CCCC1=O)N2c1cccc([N+](=O)[O-])c1
inactive: [17] > 100 µM | [1] > 100 µM | [2] > 100 µM | [3] > 100 µM | [20] > 100 µM | [6] > 100 µM | [18] > 100 µM | [9] > 100 µM | [19] 67.9 µM | [10] > 100 µM | [12] > 100 µM | [13] > 100 µM | [14] > 100 µM | [15] > 100 µM | [16] > 100 µM

COc1ccc(C(=O)C(C(=O)C(=O)Nc2ccc(Cl)c(Cl)c2)c2ccc(OC)cc2)cc1 (stereo not drawn)
inactive: [17] > 100 µM | [1] > 100 µM | [2] > 100 µM | [3] > 100 µM | [4] > 100 µM | [5] > 100 µM | [6] > 100 µM | [8] > 100 µM | [18] > 100 µM | [19] > 100 µM | [10] > 100 µM | [11] > 100 µM | [12] > 100 µM | [13] > 100 µM | [14] > 100 µM | [15] > 100 µM | [16] > 100 µM

CS(=O)(=O)c1nc(-c2cc3c(c(S(C)(=O)=O)n2)CCC3)cc2c1CCC2
inactive: [17] > 100 µM | [1] > 100 µM | [2] > 100 µM | [3] > 100 µM | [4] > 100 µM | [6] > 100 µM | [7] 24.4 µM | [18] > 100 µM | [9] > 100 µM | [19] 33.7 µM | [10] 44.3 µM | [11] > 100 µM | [12] > 100 µM | [13] > 100 µM | [14] > 100 µM | [15] > 100 µM | [16] 47.3 µM

CCOC(=O)C1=C(O)C(=O)c2ccsc2C1=O
inactive: [17] > 100 µM | [1] > 100 µM | [2] > 100 µM | [3] > 100 µM | [4] > 100 µM | [5] > 100 µM | [6] > 100 µM | [8] > 100 µM | [18] > 100 µM | [19] > 100 µM | [10] > 100 µM | [11] > 100 µM | [12] > 100 µM | [13] > 100 µM | [14] > 100 µM | [15] > 100 µM | [16] > 100 µM

O=c1[nH]nc(Nc2ccc(Cl)cc2)c2nnn(-c3ccc([N+](=O)[O-])cc3)c12
inactive: [1] 43.3 µM | [2] 39.5 µM | [3] 15.2 µM | [4] 27.4 µM | [5] 14.5 µM | [6] 14.5 µM | [7] 42.4 µM | [8] 26.1 µM | [9] 18.3 µM | [10] 24.3 µM | [11] 25.3 µM | [13] 10.8 µM | [14] 26.9 µM | [15] 30.9 µM | [16] 14.2 µM

NN/C(=N\c1ccc(Cl)cc1)NS(=O)(=O)c1ccc(S(=O)(=O)c2ccccc2)s1
inactive: [17] 49.1 µM | [1] 16.8 µM | [2] 27.7 µM | [4] 41.2 µM | [5] 18.6 µM | [6] 15.3 µM | [7] 33.3 µM | [18] 20.6 µM | [9] 25.5 µM | [19] 15.5 µM | [11] 8.79 µM | [12] 46.7 µM | [13] 19.2 µM | [14] 22.6 µM | [15] 38.6 µM | [16] 29 µM

O=C(O)C1(c2ccccc2)CCCNCC1 (stereo not drawn)
inactive: [17] > 100 µM | [1] > 100 µM | [2] > 100 µM | [3] > 100 µM | [4] > 100 µM | [5] > 100 µM | [6] > 100 µM | [8] > 100 µM | [18] > 100 µM | [19] > 100 µM | [10] > 100 µM | [11] > 100 µM | [12] > 100 µM | [13] > 100 µM | [14] > 100 µM | [15] > 100 µM | [16] > 100 µM

COc1cccc2c1OC1c3ccccc3OCC1C2 (stereo not drawn)
inactive: [17] > 100 µM | [2] > 100 µM | [3] > 100 µM | [4] > 100 µM | [6] > 100 µM | [7] > 100 µM | [8] > 100 µM | [18] > 100 µM | [9] 82.6 µM | [10] > 100 µM | [11] > 100 µM | [13] 35.7 µM | [14] > 100 µM | [15] > 100 µM | [16] > 100 µM

CCC(C)[C@H](NC(=O)N[C@H](C)c1ccccc1)C(=O)OC (stereo partly drawn)
inactive: [17] > 100 µM | [1] > 100 µM | [2] > 100 µM | [3] > 100 µM | [4] > 100 µM | [5] > 100 µM | [6] > 100 µM | [7] > 100 µM | [18] > 100 µM | [9] > 100 µM | [11] > 100 µM | [12] > 100 µM | [13] > 100 µM | [14] > 100 µM | [15] > 100 µM | [16] > 100 µM
